# According to patent publication EP0092073A1, “Magnesium salt of chenodeoxycholic acid and ursodeoxycholic acid, the process for its preparation, and therapeutic compositions which contain it as active principle” (SCHWARZ ITALIA S.p.A., priority 1982, dated 1983):
# Columns and labels:
# [1] = test system: dog; assay: Acute lethality and toxicity, oral administration (gastric probe); type: in vivo; parameters: key to Toxic symptomatology Type: NN = no symptomatology; D = depression; conditions: for % mortality at following times after administration 24 h / % mortality at following times after administration 7 days / Toxic symptomatology Type / Toxic symptomatology Latency: oral; for LD50 (mg/kg with reliability limits) 7 days after treatment: po, also printed as greater than 600 Dts/kg
# [2] = test system: Mus musculus; assay: Lethality and toxicity, endoperitoneal administration; type: in vivo; parameters: key to Toxic symptomatology Type: NN = no symptomatology; D = depression; conditions: for % mortality at the following times after administration 24 h / % mortality at the following times after administration 7 days / Toxic symptomatology Latency / Toxic symptomatology Type: endoperitoneal; for LD50 (mg/kg with reliability limits) 7 days after treatment: ip, probit method
# Protocol: (§1) Unless otherwise specified, the research was carried out using: a) Mg-UCD capsules as such; b) the powdered contents of Mg-UCD capsules; CDCA (chenodeoxycholic acid) and UDCA (ursodeoxycholic acid) as pure substance which in all cases was partly dissolved and partly suspended under warm conditions (T = 30°C) in 10% gum arabic mucilage (so as to administer 10-40 ml of liquid per kg orally). In certain cases, namely in the experiments involving parenteral administration, the active principle of Mg-UCD, the chenodeoxycholic acid and ursodeoxycholic acid were dissolved in distilled water of slightly alkaline pH (5-10 ml/kg).
# (§2) The generally acute lethality, toxicity and tolerability were determined by oral administration of the Mg-UCD (by gastric probe) in the Mus musculus, rat and dog. Animals of both sexes were used, none of which were pregnant. They were fasted for about 12 hours before treatment (but allowing them free access to water). The investigations were carried out using the Mg-UCD in powder form. Comparative investigations were carried out on the rat and Mus musculus using the active principle by endoperitoneal administration, and chenodeoxycholic acid and ursodeoxycholic acid by oral administration (using a gastric probe). Each dose was administered to 20 rats or Mus musculus (10 male and 10 female) and to eight dogs (4 male and 4 female). The animals were observed attentively during the 7 days following administration, and any lethality, toxic symptoms, disturbances, functional variations determinable with the eye, behaviour etc. were noted.
# (§3) The LD50 was determined 7 days after administration using the probit method.
# [3] = test system: rat; assay: as above; type: in vivo; parameters: key to Toxic symptomatology Type: NN = no symptomatology; D = depression; conditions: for % mortality at the following times after administration 24 h / % mortality at the following times after administration 7 days / Toxic symptomatology Latency / Toxic symptomatology Type: endoperitoneal; for LD50 (mg/kg with reliability limits) 7 days after treatment: ip, probit method
# Protocol: as §1, §2, §3
# [4] = Solubility; type: physicochemical
substance,measurement,setting,value
double magnesium salt of chenodeoxycholic acid and ursodeoxycholic acid [Mg-UCD],% mortality at following times after administration 24 h,"[1]; Dog F, 250 mg/kg (60 Dts/kg)",0%
same,% mortality at following times after administration 7 days,"[1]; Dog F, 250 mg/kg (60 Dts/kg)",0%
same,Toxic symptomatology Type,"[1]; Dog F, 250 mg/kg (60 Dts/kg)",NN
same,% mortality at following times after administration 24 h,"[1]; Dog F, 2500 mg/kg (600 Dts/kg)",0%
same,% mortality at following times after administration 7 days,"[1]; Dog F, 2500 mg/kg (600 Dts/kg)",0%
same,Toxic symptomatology Latency,"[1]; Dog F, 2500 mg/kg (600 Dts/kg)",5-10 min
same,Toxic symptomatology Type,"[1]; Dog F, 2500 mg/kg (600 Dts/kg)",D
same,LD50 (mg/kg with reliability limits) 7 days after treatment,[1]; Dog F,greater than 2500 mg/kg (greater than 600 Dts/kg)
same,% mortality at following times after administration 24 h,"[1]; Dog M, 250 mg/kg (60 Dts/kg)",0%
same,% mortality at following times after administration 7 days,"[1]; Dog M, 250 mg/kg (60 Dts/kg)",0%
same,Toxic symptomatology Type,"[1]; Dog M, 250 mg/kg (60 Dts/kg)",NN
same,% mortality at following times after administration 24 h,"[1]; Dog M, 2500 mg/kg (600 Dts/kg)",0%
same,% mortality at following times after administration 7 days,"[1]; Dog M, 2500 mg/kg (600 Dts/kg)",0%
same,Toxic symptomatology Latency,"[1]; Dog M, 2500 mg/kg (600 Dts/kg)",5-10 min
same,Toxic symptomatology Type,"[1]; Dog M, 2500 mg/kg (600 Dts/kg)",D
same,LD50 (mg/kg with reliability limits) 7 days after treatment,[1]; Dog M,greater than 2500 mg/kg (greater than 600 Dts/kg)
same,any case of death or any significant toxic symptomatology,"[1]; dog, oral (gastric probe), 7 days following treatment, individual doses up to 2500 mg/kg of active principle (600 Dts/kg)",does not show
same,% mortality at the following times after administration 24 h,"[2]; M. musculus F, 1000 mg/kg",0%
same,% mortality at the following times after administration 7 days,"[2]; M. musculus F, 1000 mg/kg",0%
same,Toxic symptomatology Latency,"[2]; M. musculus F, 1000 mg/kg",1-2 min
same,Toxic symptomatology Type,"[2]; M. musculus F, 1000 mg/kg",D
same,% mortality at the following times after administration 24 h,"[2]; M. musculus F, 2000 mg/kg",10%
same,% mortality at the following times after administration 7 days,"[2]; M. musculus F, 2000 mg/kg",10%
same,Toxic symptomatology Latency,"[2]; M. musculus F, 2000 mg/kg",1-2 min
same,Toxic symptomatology Type,"[2]; M. musculus F, 2000 mg/kg",D
same,% mortality at the following times after administration 24 h,"[2]; M. musculus F, 4000 mg/kg",70%
same,% mortality at the following times after administration 7 days,"[2]; M. musculus F, 4000 mg/kg",70%
same,Toxic symptomatology Latency,"[2]; M. musculus F, 4000 mg/kg",1-2 min
same,Toxic symptomatology Type,"[2]; M. musculus F, 4000 mg/kg",D
same,LD50 (mg/kg with reliability limits) 7 days after treatment,[2]; M. musculus F,2455 (1984-3039) mg/kg
same,% mortality at the following times after administration 24 h,"[2]; M. musculus M, 1000 mg/kg",0%
same,% mortality at the following times after administration 7 days,"[2]; M. musculus M, 1000 mg/kg",0%
same,Toxic symptomatology Latency,"[2]; M. musculus M, 1000 mg/kg",1-2 min
same,Toxic symptomatology Type,"[2]; M. musculus M, 1000 mg/kg",D
same,% mortality at the following times after administration 24 h,"[2]; M. musculus M, 2000 mg/kg",10%
same,% mortality at the following times after administration 7 days,"[2]; M. musculus M, 2000 mg/kg",10%
same,Toxic symptomatology Latency,"[2]; M. musculus M, 2000 mg/kg",1-2 min
same,Toxic symptomatology Type,"[2]; M. musculus M, 2000 mg/kg",D
same,% mortality at the following times after administration 24 h,"[2]; M. musculus M, 4000 mg/kg",60%
same,% mortality at the following times after administration 7 days,"[2]; M. musculus M, 4000 mg/kg",60%
same,Toxic symptomatology Latency,"[2]; M. musculus M, 4000 mg/kg",1-2 min
same,Toxic symptomatology Type,"[2]; M. musculus M, 4000 mg/kg",D
same,LD50 (mg/kg with reliability limits) 7 days after treatment,[2]; M. musculus M,2455 (1984-3039) mg/kg
same,% mortality at the following times after administration 24 h,"[3]; Rat F, 1000 mg/kg",0%
same,% mortality at the following times after administration 7 days,"[3]; Rat F, 1000 mg/kg",0%
same,Toxic symptomatology Latency,"[3]; Rat F, 1000 mg/kg",1-2 min
same,Toxic symptomatology Type,"[3]; Rat F, 1000 mg/kg",D
same,% mortality at the following times after administration 24 h,"[3]; Rat F, 2000 mg/kg",10%
same,% mortality at the following times after administration 7 days,"[3]; Rat F, 2000 mg/kg",10%
same,Toxic symptomatology Latency,"[3]; Rat F, 2000 mg/kg",1-2 min
same,Toxic symptomatology Type,"[3]; Rat F, 2000 mg/kg",D
same,% mortality at the following times after administration 24 h,"[3]; Rat F, 4000 mg/kg",60%
same,% mortality at the following times after administration 7 days,"[3]; Rat F, 4000 mg/kg",60%
same,Toxic symptomatology Latency,"[3]; Rat F, 4000 mg/kg",1-2 min
same,Toxic symptomatology Type,"[3]; Rat F, 4000 mg/kg",D
same,LD50 (mg/kg with reliability limits) 7 days after treatment,[3]; Rat F,2449 (2063-2906) mg/kg
same,% mortality at the following times after administration 24 h,"[3]; Rat M, 1000 mg/kg",0%
same,% mortality at the following times after administration 7 days,"[3]; Rat M, 1000 mg/kg",0%
same,Toxic symptomatology Latency,"[3]; Rat M, 1000 mg/kg",1-2 min
same,Toxic symptomatology Type,"[3]; Rat M, 1000 mg/kg",D
same,% mortality at the following times after administration 24 h,"[3]; Rat M, 2000 mg/kg",10%
same,% mortality at the following times after administration 7 days,"[3]; Rat M, 2000 mg/kg",10%
same,Toxic symptomatology Latency,"[3]; Rat M, 2000 mg/kg",1-2 min
same,Toxic symptomatology Type,"[3]; Rat M, 2000 mg/kg",D
same,% mortality at the following times after administration 24 h,"[3]; Rat M, 4000 mg/kg",70%
same,% mortality at the following times after administration 7 days,"[3]; Rat M, 4000 mg/kg",70%
same,Toxic symptomatology Latency,"[3]; Rat M, 4000 mg/kg",1-2 min
same,Toxic symptomatology Type,"[3]; Rat M, 4000 mg/kg",D
same,LD50 (mg/kg with reliability limits) 7 days after treatment,[3]; Rat M,2288 (1902-2751) mg/kg
same,Solubility,[4]; in alcohol,fairly soluble in alcohol
same,Solubility,"[4]; in water, listed as Mg salt",practically insoluble in water
same,Solubility,"[4]; in water, listed as double salt",insoluble in water
